Source: US7816520B2, “5,6-diphenyl-1,2,4-triazinic dimeric derivatives and the use thereof in the form of sun-protective agents” (Pierre Fabre Dermo-Cosmetique, priority 2004, dated 2010)
Several values for one entry are separate records, joined by “and”; a condition that tells them apart may be missing. Identical values can stand only once.

How the values were obtained:
[1] = Spectral characteristics: molar extinction coefficient and specific absorbance (UV spectrophotometry in ethyl acetate); format: physicochemical; settings: 10 μg/ml; for Maximum molar extinction coefficient UVB / Maximum specific absorbance UVB: UVB band
Text: The calculation of the molar extinction coefficient (ε) is made from the Beer-Lambert law:
[formula] Wherein: • A=absorbance • I0=intensity of the incident light • I=intensity of the transmitted light • ε=molar extinction (or molar absorbance) coefficient in M^−1 cm^−1 • l=path length in cm • c=concentration in mol/l
The molar extinction coefficient can be expressed with respect to a given mass of the product. It thus makes it possible to be able to compare the coefficients of extinction between products for the same given quantity. This quantity is 1% by weight. The molar extinction coefficient thus becomes the specific absorbance (A1cm^1%).
It is expressed as follows:
[formula] Wherein: • A1cm^1%=specific absorbance • ε=molar extinction coefficient • M=molar mass
The spectral characteristics of the compounds in comparison with commercial filters at a concentration of 10 μg/ml are summarized in tables 2-1 and 2-2.
Procedure: The products are dissolved in ethyl acetate to a concentration of 10 μg/ml. The spectra are measured using a dual-beam spectrophotometer (Varian CARY 50 Scan) between 290 nm and 400 nm.

[2] = Spectral distribution in UVA and UVB, 290 nm to 400 nm; format: physicochemical; settings: for Spectral distribution (UV bands absorbed): absorption spectra, FIGS. 1-3; for Absorption peaks: range from 290 nm to 400 nm
Text: The products tested are classified according to spectral distribution in UVA and UVB in a range from 290 nm to 400 nm. It is possible to differentiate them according to their spectral distribution: Products with a narrow spectrum: • Products absorbing in the range between 280 nm and 320 nm (UVB) • Products absorbing in the range between 320 nm and 400 nm (UVA) Products with a broad spectrum: • Products absorbing in UVB (280-320 nm) and UVA-II […] • Products covering UVB and UVA (280-400 nm).

[3] = In vitro SPF measurement in a chemical solvent (Diffey and Robson); settings: ethyl acetate, 10 μg/ml, transmittance 290-400 nm
Protocol: The in vitro methods of determining the protective effectiveness of sun products consist of measuring by transmission spectrophotometry the absorption spectrum of the filter in solution or of the product applied on a substrate with the aim of simulating the surface of the skin. The effectiveness against UVB and/or UVA rays, or the effect on the cutaneous response, are then determined by calculation, taking into account or not the UV radiation action spectrum for the damage considered.
The Sayre/Agin and Diffey/Robson method, used since the 1990s, involves a comparative measurement, with the aid of an integrating-sphere spectroradiometer, of the transition from 290 nm to 400 nm in 5 nm steps, the sample being subjected to UV radiation from a stable known source covering the whole of the UV spectrum (unfiltered xenon).
Diffey and Robson evaluate the erythemal response by the following calculation:
[formula] E(λ)=spectral irradiation in W(m-^2) (nm^−1) at 40° N sun at 20° zenith angle • ε=erythematous capacity
[formula] N(λ)=number of values for a given wavelength
The Diffey and Robson formula makes it possible to determine SPF from the measurement of transmittance between 290 nm and 400 nm. Transmittance is measured in solution in ethyl acetate at a concentration of 10 μg/ml using a UV-visible spectrophotometer (Varian CARY 50 Scan).
[formula] T(λ)=transmittance at wavelength λ

[4] = Photostability in solution in a chemical solvent (Suntest CPS+); format: physicochemical; settings: 25 μg deposited from methanol, absorbance vs non-irradiated control, in % (unit assumed); for Photostability at 5 MED, mean: Suntest irradiation 5 MED; for Photostability at 10 MED, mean: Suntest irradiation 10 MED
Text: A Suntest CPS+(Atlas, Linsengenicht/Altenhasslan, Germany) was used. The Suntest makes it possible to reproduce the solar spectrum and thus to carry out exposures inside at any time without weather constraints.
The radiance of the solar simulator was carefully measured with a spectroradiometer (MSS 2044, Bielefeld, Germany). UVB and UVA intensities were 0.49 mW/cm^2 and 6.32 mW/cm^2, respectively. The MED value defined by COLIPA is 5.6 J/cm^2 in total UV (22). The UV total (UVA+UVB) accounts for 14.8% of the energy delivered by the lamp (power 460 W/m^2). An irradiation dose equivalent to 1 MED corresponds to 37.83 J/cm^2 (in total spectrum) delivered by the lamp.
The Suntest test duration is calculated using the following formula: t=H/E with: • E=illumination energy in W/m^2 • H=irradiation dose in J/m^2 • t=duration of the test in s
The solutions of the compounds are prepared at a concentration of 500 μg/ml in methanol. 50 μl (25 μg) of each solution are deposited in a crystallizer, then irradiated in the Suntest at 5, 10 and/or 20 MED. A non-irradiated control is prepared (deposit of 50 μl of solution and addition of 2.450 ml of methanol). The solvent evaporates during irradiation and the products are taken up in 2.5 ml of methanol. After irradiation, the absorbance of each solution is measured with the UV-visible spectrophotometer (Varian CARY 50 Scan).

[5] = Solubility study in solvents or excipients used in cosmetics; format: physicochemical; settings: for Solubilities: Soluble (solvent in which the compound is soluble): value = solvent; for Solubilities: Insoluble (solvent in which the compound is insoluble): value = solvent named in the Insoluble column
[6] = excipient Finsol V NT ® (C12-C15 alkyl benzoate)
[7] = excipient PEG400 ® (polyethylene glycol)

CC(C)CCC(C)(C)c1ccc(-c2nnc(-c3ccc(-c4nnc(-c5ccc(C(C)(C)CCC(C)C)cc5)c(-c5ccc(C(C)(C)CCC(C)C)cc5)n4)cc3)nc2-c2ccc(C(C)(C)CCC(C)C)cc2)cc1 [WP151]
Maximum molar extinction coefficient UVA ([1]; UVA band): 60500 M⁻¹ cm⁻¹ | Maximum specific absorbance UVA ([1]; A1cm^1%, UVA band): 611 | Wavelength of maximum molar extinction coefficient UVA ([1]; the 'at ...' part of the cell): at 340 nm | Wavelength of maximum specific absorbance UVA ([1]; the 'at ...' part of the cell): at 340 nm | Spectral distribution (UV bands absorbed) [2]: absorb in UVB and UVA | Absorption peaks [2]: 340 nm | SPF [3]: 67.2 | Photostability at 5 MED, mean [4]: 76.16 | Photostability at 10 MED, mean [4]: 70.15 | Solubility (%) [5, 6]: 5% | Solubility (%) ([5]; excipient Isopropyl adipate): 1% | Solubility (%) ([5]; excipient Myritol 331 ® (cocoglycerides)): 2% | Solubility (%) [5, 7]: 0.5%

CCCCC(CC)COC(=O)C=Cc1ccc(OC)cc1 (stereo not drawn) [Parsol MCX ®, reference compound]
Maximum molar extinction coefficient UVB [1]: 24600 M⁻¹ cm⁻¹ | Maximum specific absorbance UVB ([1]; A1cm^1%): 848 | Wavelength of maximum molar extinction coefficient UVB ([1]; the 'at ...' part of the cell): at 310 nm | Wavelength of maximum specific absorbance UVB ([1]; the 'at ...' part of the cell): at 310 nm | Absorption peaks [2]: 310 nm | SPF [3]: 20.78

CC(C)(C)c1ccc(-c2nnc(-c3ccc(-c4nnc(-c5ccc(C(C)(C)C)cc5)c(-c5ccc(C(C)(C)C)cc5)n4)cc3)nc2-c2ccc(C(C)(C)C)cc2)cc1 [WP104, 1,4-bis[5,6-(4,4′-4-di-tert-butyl)-diphenyl-1,2,4-triazin-3-yl]benzene]
Maximum molar extinction coefficient UVB [1]: 90000 M⁻¹ cm⁻¹ | Maximum specific absorbance UVB ([1]; A1cm^1%): 1176 | Wavelength of maximum molar extinction coefficient UVB ([1]; the 'at ...' part of the cell): at 300 nm | Wavelength of maximum specific absorbance UVB ([1]; the 'at ...' part of the cell): at 300 nm | Spectral distribution (UV bands absorbed) [2]: absorb in UVB and UVA | Absorption peaks [2]: 300 nm | SPF [3]: 79.35 | Photostability at 5 MED, mean [4]: 93.70 | Photostability at 10 MED, mean [4]: 88.55 | Solubilities: Soluble (solvent in which the compound is soluble) [5]: DCM and CHCl3 and Toluene and DMSO and Ethyl acetate | Solubilities: Insoluble (solvent in which the compound is insoluble) [5]: EtOH and MeOH and 1-Octanol and Acetic acid and Myritol and Transcutol

1,4-bis[5,6-(4,4′-dihexyl)-diphenyl-1,2,4-triazin-3-yl]benzene [WP96]
SPF [3]: 68.02 | Photostability at 5 MED, mean [4]: 83.30 | Photostability at 10 MED, mean [4]: 74.35 | Solubility (%) [5, 6]: 1% | Solubility (%) ([5]; excipient Myritol 318 ® (caprylic/capric triglycerides)): 0.1% | Solubility (%) [5, 7]: 2% | Solubilities: Soluble, Transcutol ([5]; solvent Transcutol): Transcutol 0.5% | Solubilities: Soluble (solvent in which the compound is soluble) [5]: DMC and CHCl3 and Et2O and Toluene and Octanol and Methanol | Solubilities: Insoluble (solvent in which the compound is insoluble) [5]: EtOH and Myritol and Acetic acid
